“And” between values parts separate entries of the source, which are not always exact repeats. Equal entries are not always repeated. Inconclusive results and toxic doses are left out. How the source made its calls: active means survival T/C of 150% or more; inactive means T/C below 125% in these data.
System: P388 leukemia ip, CD2F1 mice, survival T/C
Assay: NCI In Vivo Anticancer Drug Screen. Data for tumor model P388 Leukemia (intraperitoneal) in CD2F1 (CDF1) mice
Details: endpoint: median survival time, higher = longer survival
In short: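 Mice carrying the transplanted tumor received test compound or vehicle. Survival was recorded in each group, and the value is the treated-group measurement divided by that of the vehicle-treated control group.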

[1] = dose: 12.5 mg/kg/injection, schedule: Q01DX005 (ip), vehicle: Klucel (hydroxypropylcellulose) (HPC)
[2] = dose: 25.0 mg/kg/injection, schedule: Q01DX005 (ip), vehicle: Klucel (hydroxypropylcellulose) (HPC)
[3] = dose: 50.0 mg/kg/injection, schedule: Q01DX005 (ip), vehicle: Klucel (hydroxypropylcellulose) (HPC)
[4] = dose: 50.0 mg/kg/injection, schedule: Q01DX005 (ip), vehicle: saline with Tween-80
[5] = dose: 100.0 mg/kg/injection, schedule: Q01DX005 (ip), vehicle: saline with Tween-80
[6] = dose: 60.0 mg/kg/injection, schedule: Q01DX005 (ip), vehicle: Klucel (hydroxypropylcellulose) (HPC)
[7] = dose: 120.0 mg/kg/injection, schedule: Q01DX005 (ip), vehicle: Klucel (hydroxypropylcellulose) (HPC)
[8] = dose: 240.0 mg/kg/injection, schedule: Q01DX005 (ip), vehicle: Klucel (hydroxypropylcellulose) (HPC)
[9] = dose: 6.25 mg/kg/injection, schedule: Q01DX009 (ip), vehicle: saline
[10] = dose: 200.0 mg/kg/injection, schedule: Q01DX005 (ip), vehicle: saline with Tween-80
[11] = dose: 100.0 mg/kg/injection, schedule: Q04DX002 (ip), vehicle: Klucel (hydroxypropylcellulose) (HPC)
[12] = dose: 200.0 mg/kg/injection, schedule: Q04DX002 (ip), vehicle: Klucel (hydroxypropylcellulose) (HPC)
[13] = dose: 400.0 mg/kg/injection, schedule: Q04DX002 (ip), vehicle: Klucel (hydroxypropylcellulose) (HPC)
[14] = dose: 50.0 mg/kg/injection, schedule: Q01DX009 (ip), vehicle: saline with Tween-80
[15] = dose: 100.0 mg/kg/injection, schedule: Q01DX009 (ip), vehicle: saline with Tween-80
[16] = dose: 200.0 mg/kg/injection, schedule: Q01DX009 (ip), vehicle: saline with Tween-80

Measured: T/C

Cc1cc(O)c2c(c1O)C(=O)c1cccc(O)c1C2=O
inactive: dose: 0.75 mg/kg/injection, schedule: Q01DX009 (ip), vehicle: Klucel (hydroxypropylcellulose) (HPC) 108 % of control | dose: 1.5 mg/kg/injection, schedule: Q01DX009 (ip), vehicle: Klucel (hydroxypropylcellulose) (HPC) 115 % of control | dose: 3.0 mg/kg/injection, schedule: Q01DX005 (ip), vehicle: Klucel (hydroxypropylcellulose) (HPC) 99 % of control | dose: 3.0 mg/kg/injection, schedule: Q01DX009 (ip), vehicle: Klucel (hydroxypropylcellulose) (HPC) 90 % of control | dose: 6.0 mg/kg/injection, schedule: Q01DX005 (ip), vehicle: Klucel (hydroxypropylcellulose) (HPC) 106 % of control | dose: 6.0 mg/kg/injection, schedule: Q01DX009 (ip), vehicle: Klucel (hydroxypropylcellulose) (HPC) 114 % of control | dose: 12.0 mg/kg/injection, schedule: Q01DX005 (ip), vehicle: Klucel (hydroxypropylcellulose) (HPC) 101 % of control | dose: 12.0 mg/kg/injection, schedule: Q01DX009 (ip), vehicle: Klucel (hydroxypropylcellulose) (HPC) 98 % of control | [1] 101 % of control | dose: 24.0 mg/kg/injection, schedule: Q01DX005 (ip), vehicle: Klucel (hydroxypropylcellulose) (HPC) 95 % of control | [2] 97 % of control | [3] 90 % of control | dose: 100.0 mg/kg/injection, schedule: Q01DX001 (ip), vehicle: saline 109 % of control | dose: 200.0 mg/kg/injection, schedule: Q01DX001 (ip), vehicle: saline 108 % of control | dose: 400.0 mg/kg/injection, schedule: Q01DX001 (ip), vehicle: saline 100 % of control

CCC1(c2ccccc2)C(=O)N(CCCl)C(=O)N(CCCl)C1=O
inactive: dose: 50.0 mg/kg/injection, schedule: Q01DX009 (ip), vehicle: Klucel (hydroxypropylcellulose) (HPC) 92 % of control | dose: 100.0 mg/kg/injection, schedule: Q01DX009 (ip), vehicle: Klucel (hydroxypropylcellulose) (HPC) 92 % of control | dose: 200.0 mg/kg/injection, schedule: Q01DX009 (ip), vehicle: Klucel (hydroxypropylcellulose) (HPC) 92 % of control

C/C=C/COCC
inactive: dose: 100.0 mg/kg/injection, schedule: Q04DX003 (ip), vehicle: saline with Tween-80 101 % of control | dose: 200.0 mg/kg/injection, schedule: Q04DX003 (ip), vehicle: saline with Tween-80 106 % of control | dose: 400.0 mg/kg/injection, schedule: Q04DX003 (ip), vehicle: saline with Tween-80 108 % of control

CCCC1CCCCN1Cc1ccccc1 (stereo not given)
inactive: [4] 107 % of control | [5] 104 % of control

CC(C)n1ncc2c(N)ncnc21
inactive: dose: 3.75 mg/kg/injection, schedule: Q01DX009 (ip), vehicle: saline 100 % of control | dose: 7.5 mg/kg/injection, schedule: Q01DX009 (ip), vehicle: saline 95 % of control | dose: 15.0 mg/kg/injection, schedule: Q01DX009 (ip), vehicle: saline 104 % of control and 95 % of control

CNC(=O)C(O)c1c(-c2ccccc2)c(-c2ccccc2)c2n1CCC2 (stereo not given)
inactive: [6] 96 % of control | [7] 89 % of control | [8] 86 % of control

Cc1cc(N/N=C/c2ccc([N+](=O)[O-])cc2)c2cc3c(cc2n1)OCO3
inactive: [1] 100 % of control | [2] 102 % of control | [3] 101 % of control and 104 % of control

O=C(CC(NC(=O)OCc1ccccc1)C(=O)O)OCc1ccccc1 (stereo not given)
inactive: dose: 100.0 mg/kg/injection, schedule: Q04DX003 (ip), vehicle: saline sonified 110 % of control | dose: 200.0 mg/kg/injection, schedule: Q04DX003 (ip), vehicle: saline sonified 105 % of control

c1ccc(-c2c[n+]3ccccc3n2-c2ccccc2)cc1
inactive: dose: 1.56 mg/kg/injection, schedule: Q01DX009 (ip), vehicle: saline 100 % of control | dose: 3.12 mg/kg/injection, schedule: Q01DX009 (ip), vehicle: saline 94 % of control | [9] 101 % of control and 92 % of control

CC12CC(c3ccoc3)OC(=O)C1CCC13COC(=O)C1=CCCC32 (stereo not given)
inactive: dose: 0.25 mg/kg/injection, schedule: Q01DX009 (ip), vehicle: Klucel (hydroxypropylcellulose) (HPC) 96 % of control | dose: 0.5 mg/kg/injection, schedule: Q01DX009 (ip), vehicle: Klucel (hydroxypropylcellulose) (HPC) 88 % of control | dose: 1.0 mg/kg/injection, schedule: Q01DX009 (ip), vehicle: Klucel (hydroxypropylcellulose) (HPC) 90 % of control | dose: 2.0 mg/kg/injection, schedule: Q01DX009 (ip), vehicle: Klucel (hydroxypropylcellulose) (HPC) 114 % of control

CC=C=CCN(C)Cc1ccccc1
inactive: [9] 107 % of control | dose: 12.5 mg/kg/injection, schedule: Q01DX009 (ip), vehicle: saline 94 % of control | dose: 25.0 mg/kg/injection, schedule: Q01DX009 (ip), vehicle: saline 109 % of control | dose: 50.0 mg/kg/injection, schedule: Q04DX003 (ip), vehicle: Klucel (hydroxypropylcellulose) (HPC) 108 % of control | dose: 100.0 mg/kg/injection, schedule: Q04DX003 (ip), vehicle: Klucel (hydroxypropylcellulose) (HPC) 88 % of control

CC[C@@H](C)[C@H]([C@H](CC(=O)N1CCC[C@@H]1[C@@H](OC)[C@H](C)C(=O)N[C@H](Cc1ccccc1)c1nccs1)OC)N(C)C(=O)[C@H](NC(=O)[C@@H](C(C)C)N(C)C)C(C)C
active: dose: 6.5 micrograms/kg/injection, schedule: Q01DX005 (ip), vehicle: saline + alcohol 155 % of control | dose: 13.5 micrograms/kg/injection, schedule: Q01DX009 (ip), vehicle: saline + alcohol 173 % of control

CC(=O)OCCCn1nc(COC(N)=O)c2c1CC(C)CC2=O (stereo not given)
inactive: [6] 101 % of control | [7] 99 % of control | [8] 100 % of control

O=c1oc2c(cc1Cl)CCc1ccccc1-2
inactive: [4] 104 % of control | [5] 102 % of control | [10] 97 % of control

CN(C)c1ccc2[nH]c3c(C(=O)O)cc(=O)c(=O)c=3oc2c1
inactive: [4] 108 % of control | [5] 100 % of control

C/C(=N/NC(=O)c1ccccc1)C(=O)OC(=NC1CCCCC1)NC1CCCCC1
inactive: [11] 99 % of control | [12] 95 % of control | [13] 96 % of control

CCOC(CNCc1cc(C)c2[nH]c3ccccc3c2c1C)OCC
inactive: [4] 100 % of control | [5] 102 % of control | [10] 110 % of control

CCCCn1c(=O)cc(C(=O)O)[nH]c1=O
inactive: [14] 104 % of control | [15] 100 % of control | [16] 94 % of control

CCCCC(=O)NN
inactive: dose: 12.5 mg/kg/injection, schedule: Q01DX009 (ip), vehicle: saline with Tween-80 96 % of control | dose: 25.0 mg/kg/injection, schedule: Q01DX009 (ip), vehicle: saline with Tween-80 102 % of control | [14] 102 % of control

Cc1nnc2cc3ccccc3cn12
inactive: [4] 89 % of control | [5] 97 % of control | [10] 100 % of control

CC(O)C(NC(=O)SCc1ccccc1)C(=O)O (stereo not given)
inactive: [4] 101 % of control | [5] 90 % of control | [10] 92 % of control

NC(=S)c1cccc(C2Nc3ccccc3O2)c1 (stereo not given)
inactive: [14] 94 % of control | [15] 104 % of control | [16] 104 % of control

O=C(O)c1cccc2c1Cc1ccccc1-2
inactive: [3] 94 % of control | dose: 100.0 mg/kg/injection, schedule: Q01DX005 (ip), vehicle: Klucel (hydroxypropylcellulose) (HPC) 92 % of control | dose: 200.0 mg/kg/injection, schedule: Q01DX005 (ip), vehicle: Klucel (hydroxypropylcellulose) (HPC) 88 % of control

O=C(Cc1n[nH]c(=S)nc1CC(=O)c1ccccc1)c1ccccc1
inactive: dose: 60.0 mg/kg/injection, schedule: Q01DX005 (ip), vehicle: saline with Tween-80 98 % of control | dose: 120.0 mg/kg/injection, schedule: Q01DX005 (ip), vehicle: saline with Tween-80 97 % of control | dose: 240.0 mg/kg/injection, schedule: Q01DX005 (ip), vehicle: saline with Tween-80 105 % of control

CC(C)N1COC(c2ccccc2)C1 (stereo not given)
inactive: dose: 12.5 mg/kg/injection, schedule: Q01DX005 (ip), vehicle: saline 106 % of control and 88 % of control | dose: 25.0 mg/kg/injection, schedule: Q01DX005 (ip), vehicle: saline 123 % of control and 96 % of control | dose: 50.0 mg/kg/injection, schedule: Q01DX005 (ip), vehicle: saline 100 % of control and 110 % of control and 117 % of control | dose: 100.0 mg/kg/injection, schedule: Q01DX005 (ip), vehicle: saline 124 % of control

CCNC(=O)CCC(NS(=O)(=O)c1ccc(NC(C)=O)cc1)C(=O)O (stereo not given)
inactive: [11] 91 % of control | [12] 107 % of control | [13] 92 % of control

— PubChem BioAssay AID330 (DTP/NCI, 2004)
